Read-outs that look alike come from different tables or passages of the source.
What was measured:
[1] = Drug loading using BAQ13 NPs; assay type: physicochemical; details: for PDI / Size/diameter: BAQ13 NPs loaded with the drug or dye; for Encapsulation efficiency / Drug-loading content: drug or dye loaded in BAQ13 NPs; for Drug-loading content: mass ratio
Method: Preparation and characterization of BAQ ONNs. NPs were prepared through the re-precipitation method. BAQ derivatives in methanol were added dropwise into MilliQ water while stirring for 5 min (volume ratio, 1:10), and then homogenous NPs were obtained after rotary evaporation (40° C., 20 min), followed by the characterization with Zetasizer Nano ZS (Malvern). The TEM samples were prepared by dropping 0.5 mM NPs on carbon square mesh and dried naturally, which were then observed under the Talos L120C TEM (FEI) at an accelerating voltage of 80 kV. To determine the drug content in nanoformulations, the prepared drug-loaded NPs were cut off by centrifugal filter (ultracel-10 kDa, Millipore), and the absorbance of filtrate (diluted with DMSO, 1:10, volume ratio) was measured for calculation of drug concentrations.
Next investigation was whether liposome-like BAQ ONNs can encapsulate additional agents. Upon nanoprecipitation of BAQ13 and various agents, homogeneous NPs with monomodal size distributions spontaneously formed (Table 2 and FIG. 9G).

[2] = In vivo pharmacokinetic study; design: species or system Sprague-Dawley rats; details: rats, iv, DiD 0.5 mg kg^−1, plasma DiD fluorescence
Method: In vivo pharmacokinetic study. The jugular vein of female Sprague-Dawley rats (200-250 g) was implanted with a catheter for drug injection and blood collection (Harland, Indianapolis, IN, USA). Rats (n=3) were injected with free DiD, BAQ12 NPs@DiD (10:1, mass ratio) and BAQ13 NPs@DiD (10:1, mass ratio), respectively, which contained an equivalent dose of DiD (0.5 mg kg^−1). Blood samples were collected at the indicated time points and then were centrifuged to obtain the plasma. The plasma was diluted with DMSO (1:100), and the fluorescence intensity (λEx=595 nm, λEm=665 nm) was measured by a microplate reader (SpectraMax M2).

HT29 tumours [3] = test: In/ex vivo biodistribution, HT29 model; design: species or system nude mice; details: in vivo and ex vivo imaging, 12 h and 24 h post-injection
Method: In/ex vivo biodistribution. Nude mice bearing the HT29 tumours were subjected to iv administration of BAQ13 NPs@DiD (10:1, mass ratio) at a dose of 1.0 mg kg^−1 DiD. In vivo imaging studies were performed at the corresponding time point. Organs (brain, heart, lung, liver, spleen, kidney, intestines, and muscle) and tumours were collected from mice for ex vivo imaging. Biodistribution of BAQ13 NPs@ NAPA+DiD (10/2.5/1.0 mg kg^−1, iv) was studied on NRG mice bearing PCSC tumours. Both in vivo and ex vivo imaging studies were performed as above.

OSC-3 cells = test: PBC NPs in OSC-3 cells (lysosomes, apoptosis, photodynamic therapy); assay type: cell-based; details: LC3-GFP-RFP imaging and immunoblotting
PCSC tumours = test: PCSC xenograft model; assay type: in vivo, NRG mice; details: combination therapy study, every three days
Excerpt: (§1) In vivo treatment schedule.

In vivo toxicity studies = test: In vivo toxicity studies; design: species or system FVB/N mice; details: 10 mg kg^−1, iv
Method: In vivo toxicity studies. The toxicity of BAQ NPs was investigated on female FVB/N mice via iv injection. Mice were administrated with various concentrations (10 mg kg^−1, 20 mg kg^−1 or 40 mg kg^−1) of Lys05, Liposomes@Lys05, BAQ12 NPs, and BAQ13 NPs every two days. The status of mice was monitored every day and their body weight was recorded every two days. Blood samples were collected and sent to the UCD Comparative Pathology Laboratory for tests of complete blood count (CBC) and serum chemistry.

Red blood cells = test: pH-dependent haemolysis test; assay type: cell-based; details: whole pH range, same concentration (50 μM, 4 h)
Method: After centrifugation at 500×g for 5 min, the extent of haemolysis was spectrophotometrically determined according to the amount of haemoglobin in supernatants (540 nm). The haemolysis assay was used to assess the pH-dependent detergence ability and toxicity of NPs.

HT29 tumours [4] = test: HT29 xenograft model; details: mice bearing HT29 tumours, treatment terminated on the 24th day
Method: Animal model. To establish the subcutaneous xenograft models, 5×10^6 of MIA PaCa-2 cells, 2×10^6 of HT29 cells or 2×10^4 PCSCs suspended with Matrigel (Corning) and PBS mixture (1:1, volume ratio) were injected subcutaneously into the right flank of nude mice or NRG mice, respectively.
In vivo treatment schedule. The NRG mice bearing MIA PaCa-2 xenograft tumours (˜100 mm^3) were randomized into 5 groups (n=6), and then were subjected to iv injection every three days as indicated. […] The treatment on HT29 model was stopped on Day 24, and then the mice survival in each group was recorded, in which the mouse with a tumour larger than 1,000 mm^3 was considered dead. […] The tumour volume and body weight were recorded before drug administration every time. At the end of the treatment, mice were sacrificed and the tumours were collected for further analysis.

MIA PaCa-2 cells = test: RNA sequencing, differentially expressed genes; assay type: cell-based, human; details: 5 μM, 24 h, vs vehicle
Method: RNA-seq. Total RNA was extracted by the RNeasy Mini Kit (Qiagen, Germany) from the treated MIA PaCa-2 cells (5 μM, 24 h). Samples were submitted to the UC Davis Comprehensive Cancer Center's Genomics Shared Resource (GSR) for RNA-Seq analysis. Stranded RNA-Seq libraries were prepared from 100 ng total RNA using the NEBNext Ultra Directional RNA Library Prep Kit (New England BioLabs). Subsequently, libraries were combined for multiplex sequencing on an Illumina HiSeq 4000 System (2×150 bp, paired-end, >20×10^6 reads per sample). The data of normalized genes read counts were analyzed using fold change and t test. The Differentially expressed genes (DEGs) were collected for the signaling pathways enrichment by Funrich software 3.1.3. The gene sets were from MSigDB database (Broad Institute). GSEA was performed using GSEA version 3.0 in KEGG gene sets category online, with the following parameters: n=1,000 permutations, where p-adjust <0.05, and FDR <0.05 were considered significant.

[5] = Titration with hydrochloric acid (pH buffering capacity); assay type: physicochemical; details: 1 mM, 0.1 M HCl
IMR-90 = test: MTS cell viability assay; assay type: cell-based; details: 48 h, non-cancerous cells; read-out: IC50 values from the 48 h MTS assay (μM) IMR-90
Method: (§2) Cell line and cell culture. The human pancreatic cancer cell lines (MIA PaCa-2, BXPC3, and PANC-1) were originally purchased from ATCC and were kindly provided by Dr. Shiro Urayama's Lab. HT29, HCT116, H460, MCF7, NIH/3T3, and IMR-90 cell lines were purchased from ATCC. Bone marrow cells were collected from the leg bone marrows of FVB/N mice. All the cells were cultured at 37° C. in a humidified atmosphere of 5% CO2/95% air using the corresponding medium supplemented with 10% fetal bovine serum, […] according to ATCC protocol. All the cell lines have been tested for mycoplasma contamination routinely.
(§3) Cell viability, cell growth and colony formation. Cell viability was assessed by the MTS assay. Briefly, cells in 96-well plates (4,000 cell per well) were treated as indicated, followed by the incubation with MTS regents for 4 h. OD values (490 nm) were determined via a microplate reader. Results were shown as the average cell viability calculated from the formula of [(ODtreat−ODblank)/(ODcontrol−ODblank)×100%]. Drug combination data were analyzed by Combenefit 2.02. In cell growth assay, cells in 6-well plates (50,000 cell per well) were treated as indicated and were counted manually every 24 h. Colony formation assay was also performed on 6-well plates with a starting density of 1,000-2,000 cells per well. After incubated as indicated for 10-20 days, cells were washed with PBS and stained with the solution of crystal violet and methanol for 20 min.

H460 = test: MTS cell viability assay; assay type: cell-based; details: 24 h; read-out: IC50 (μM) in the 24 h treatment H460
Method: as §2, §3

HT29 = test: MTS cell viability assay; assay type: cell-based; details: 24 h; read-out: IC50 (μM) in the 24 h treatment HT29
Method: as §2, §3

HCT116 = test: MTS cell viability assay; assay type: cell-based; details: 48 h; read-out: IC50 values from the 48 h MTS assay (μM) HCT116
Method: as §2, §3

MCF-7 = test: MTS cell viability assay; assay type: cell-based; details: 24 h; read-out: IC50 (μM) in the 24 h treatment MCF-7
Method: as §2, §3

NIH/3T3 = test: MTS cell viability assay; assay type: cell-based; details: 48 h, non-cancerous cells; read-out: IC50 values from the 48 h MTS assay (μM) NIH/3T3
Method: as §2, §3

Bone marrow cells = test: MTS cell viability assay; assay type: cell-based, FVB/N mice; details: 48 h, non-cancerous cells; read-out: IC50 values from the 48 h MTS assay (μM) Bone marrow
Method: as §2
as §3, with “After incubated as indicated for 10-20 days, cells were washed with PBS and stained with the solution of crystal violet and methanol for 20 min.” left out

MIA PaCa-2 = test: MTS cell viability assay; assay type: cell-based, human; details: 24 h; read-out: IC50 (μM) in the 24 h treatment MIA PaCa-2
Method: as §2, §3

PANC-1 = test: MTS cell viability assay; assay type: cell-based, human
Method: as §2, §3

BXPC-3 = test: MTS cell viability assay; assay type: cell-based, human
Method: as §2, §3

MIA PaCa-2 tumours = test: MIA PaCa-2 xenograft model; assay type: in vivo, NRG mice; details: 20 mg kg^−1 every three days
Method: as §1
Antitumour effect as single agents in mice. After proving the safety of BAQ ONNs, the NPs for anticancer efficacy was evaluated in a pancreatic xenograft model of MIA PaCa-2 cells. NRG mice with MIA PaCa-2 tumours (˜100 mm^3) were randomly assigned into five groups (n=6): the saline (iv) group, the Lys05 (ip) group, the liposomes@Lys05 (iv) group, the BAQ12 NPs (iv) group and the BAQ13 NPs (iv) group. The mice were then treated every three days at a dose of 20 mg kg^−1. […] These findings clearly illustrate the potential advantages of BAQ ONNs with regard to both drug discovery and drug delivery.

[6] = system: autophagy (LC3B-II, SQSTM1/p62) in MIA PaCa-2 cells; test: Autophagy inhibition (immunoblot, LC3B-GFP imaging, TEM); assay type: cell-based, human; details: western blotting, compared to untreated and Lys05-treated cells
Method: LC3B-GFP imaging. Cells in a 96-well plate (5,000 cell per well) were transfected by the autophagy sensor LC3B-GFP (Thermo Fisher) for 12 h. After treated as indicated for 4 h, cells were visualized by a fluorescence microscope (Olympus). The puncta per well were quantified using ImageJ 1.51s.
Western Blot. The cell or tumour samples were lysed with RIPA Buffer (Thermo Fisher). After centrifugation at 4° C. (15 min, 12,000×g), the concentrations of proteins in supernatant and determined by Bradford Protein Assay dye (Bio-Rad). Immunoblotting was performed routinely and were developed using a ChemiDoc™ MP imaging system.
TEM of cells and tumour tissue. MIA PaCa-2 cells in 8-well slide plates (30,000 cell per well, Lab-Tek) were treated as indicated for 48 h. The freshly harvested tumours were cut into 1 mm^3 pieces. Samples were fixed with the 0.1 M cacodylate buffer containing 2.5% glutaraldehyde plus 2% paraformaldehyde, and transferred onto carbon square mesh, followed by observation under Talos L120C TEM.

With `CCCCCCCCCCCCCCCCCCN1C(=CC=CC=CC2=[N+](CCCCCCCCCCCCCCCCCC)c3ccccc3C2(C)C)C(C)(C)c2ccccc21.[O-][Cl+3]([O-])([O-])[O-]` [Free DiD, 1,1′-dioctadecyl-3,3,3′,3′-tetramethylindodicarbocyanine perchlorate] the PDI [1] was 0.1, the Size/diameter [1] was 120 nm and the Encapsulation efficiency [1] was 100%. For the same compound, the Drug-loading content [1] was 50%, the “T1/2” value [2] was 48 min and the “biodistribution of fluorescence signals” value (HT29 tumours [3]) was “high signals in the lungs, rather than in the tumour sites”.

With pheophorbide a the induction of autophagy (OSC-3 cells) was “induced autophagy”.

Work on `CC(=O)c1cc2c(o1)C(=O)c1ccccc1C2=O` [Napabucasin] yielded a PDI [1] of 0.101, a Size/diameter [1] of 110 nm and an Encapsulation efficiency [1] of 85%. The Drug-loading content [1] was 20% and the tumour growth (PCSC tumours) was “no antitumour effect”.

With `CN(CCNc1ccnc2cc(Cl)ccc12)CCNc1ccnc2cc(Cl)ccc12` [Lys05] the “mortality after iv administration” value (In vivo toxicity studies) was “acute death of mice”, the “haemolytic response to pH” value (Red blood cells) was “did not elicit observable haemolysis” and the “Median Survival” value (HT29 tumours [4]) was 28 days. The downregulated genes (MIA PaCa-2 cells) was 103, the upregulated genes (MIA PaCa-2 cells) was 62 and the “differentially expressed genes (DEGs)” value (MIA PaCa-2 cells; fold change≥2 and p value≤0.05) was 165. The “pH plateau upon titration with HCl” value [5] was 7.2, the IC50 (IMR-90) was 15.5 ± 2.5 µM and the IC50 (H460) was 11.1 ± 0.6 µM. For the same compound, the IC50 (HT29) was 10.6 ± 3.4 µM, the IC50 (HCT116) was 8 ± 0.7 µM and the IC50 (MCF-7) was 12.3 ± 0.7 µM. The IC50 (NIH/3T3) was 12.6 ± 0.9 µM, the IC50 (Bone marrow cells) was 14 ± 1.1 µM and the IC50 (MIA PaCa-2) was 16.7 ± 4.7 µM. The IC50 (PANC-1; 24 h, read-out: IC50 (μM) in the 24 h treatment PANC-1) was 13.3 ± 2 µM, the IC50 (PANC-1; 48 h, read-out: IC50 values from the 48 h MTS assay (μM) PANC-1) was 10.8 ± 0.9 µM and the IC50 (BXPC-3; 24 h, read-out: IC50 (μM) in the 24 h treatment BXPC-3) was 7.8 ± 0.9 µM. The IC50 (BXPC-3; 48 h, read-out: IC50 values from the 48 h MTS assay (μM) BXPC-3) was 11.1 ± 1.7 µM and the tumour growth (MIA PaCa-2 tumours) was “did not display a therapeutic effect”.

With `CO/C1=C\C(C)=C\[C@@H](C)[C@@H](O)[C@@H](C)C/C(C)=C/C=C/[C@H](OC)[C@@H]([C@@H](C)[C@@H](O)[C@H](C)[C@@]2(O)C[C@@H](O)[C@H](C)[C@@H](C(C)C)O2)OC1=O` [bafilomycin A1] the “LC3B-II and SQSTM1/p62 protein levels” value [6] was “Such increases were also observed”.

Reference: patent publication US20230348419A1, “BIAMINOQUINOLINES AND NANOFORMULATIONS FOR CANCER TREATMENT” (The Regents of the University of California, priority 2019, published 2023)
